The values that follow come from patent publication US20250213564A1, “COMPOSITIONS AND METHODS FOR THE TREATMENT OF ALZHEIMER'S DISEASE AND OTHER NEUROGENERATIVE DISEASE” (priority 2022, published 2025).

Series [1] relates to Ctrl and APP/PS1 (AD) mice. The series is described as follows: Marble burying (MB). To be noted: for percentage of marbles buried: 2-month-old female AD mice. Format: in vivo. On the procedure:
The MB assay was conducted in a clean cage (10.5 in×5.5 in) containing soft pliable Beta Chip bedding (Northeastern Products Corp, Warrensburg, NY). The cage contained 16 marbles set up in 4 rows of 4 across. Mice were given 20 minutes to explore and bury. At the end of the assay, the percentage of marbles buried was calculated.

In series [2] the test system is Ctrl and APP/PS1 (AD) mice. The series is described as follows: Contextual fear conditioning (CFC), 3-shock. Format: in vivo. To be noted: for memory retrieval: 2-month-old male AD mice; for learning (freezing during training): male AD mice. On the procedure:
A 3-shock CFC paradigm was administered as previously described (Denny et al., 2014; Drew et al., 2010). Fear conditioning was conducted in chambers obtained from Coulborn Instruments (Allentown, PA) with internal dimensions of approximately 20 cm wide×16 cm deep×20.5 cm high. The chambers had metal walls on each side, clear plastic front and back walls and ceilings, and stainless-steel bars on the floor. A house light (CM1820 bulb, 28 V, 100 mA) mounted directly above the chamber provided illumination. Each chamber was located inside a larger, insulated, plastic cabinet that provided protection from outside light and noise. Each cabinet contained a ventilation fan that was operated during the sessions. A paper towel dabbed with lemon solution was placed underneath the chamber floor. Mice were held outside the experimental room in their home cages prior to testing and transported to the conditioning apparatus individually in standard mouse cages. Chambers were cleaned with 70% EtOH between each set of mice. Training sessions were conducted using a 3-shock protocol. Mice were placed into the conditioning chamber and received shocks at 180 s, 240 s, and 300 s (2 s duration each, 0.75 mA). Fifteen seconds after the last shock, mice were removed from the chamber. Overall, the training session lasted 317 s. […] All sessions were scored for freezing using FreezeFrame4 (Actimetrics, Wilmette, IL).

For series [3], the system named is 5xFAD mouse model of Alzheimer's disease (AD). To be noted: Giannoni et al., 2013; cited from earlier work.
For series [4] the following is noted: mouse, in vivo.
The subject of series [5] is Ctrl and APP/PS1 (AD) mice. To be noted: male Ctrl mice; single injection; compared to Ctrl mice.
Protocol: The APP/PS1 (AD) mice were previously bred with the ArcCreER^T2×enhanced yellow fluorescent protein (EYFP) mice (Denny et al., 2014; Perusini et al., 2017). Female and male mice were used in all experiments. The Ctrl mice were APP/PS1 (−)×ArcCreER^T2 (+) or (−)×EYFP (+/−), and the AD mice were APP/PS1 (+)×ArcCreER^T2 (+) or (−)×EYFP (+/−). Mice were housed 4-5 per cage in a 12-h (06:00-18:00) light-dark colony room at 22° C. Mice had ad libitum access to food and water.
All drugs were resuspended in saline and made fresh for each experiment. […] These dosages were chosen based upon previous studies (Brachman et al., 2016; Chen et al., 2020a). […] All drugs were prepared in physiological saline and administered intraperitoneally (i.p.) in volumes of 0.1 cc per 10 mg body weight.
Testing was performed as previously described (Brachman et al., 2016; Chen et al., 2020a). Briefly, the testing apparatus consisted of a plastic box (50×50×20 cm). The floor was covered with approximately 2 cm of wooden bedding and the arena was brightly lit (approximately 1000 lux). […] The latency of the mice to begin eating was recorded. Immediately after the latency was recorded, the food pellet was removed from the arena. The mice were then placed into their home cage and the amount of food consumed in 5 min was measured (home cage consumption), followed by an assessment of post-restriction weight. […]
Series [6] addresses hERG (human Ether-a-go-go Related Gene) channels (Homo sapiens, UniProt Q12809). To be noted: cited from earlier work.

Structures are written as SMILES. Where a name gives a salt, the structure may show the parent alone.

Sequence of hERG (human Ether-a-go-go Related Gene) channels (Q12809 whole entry): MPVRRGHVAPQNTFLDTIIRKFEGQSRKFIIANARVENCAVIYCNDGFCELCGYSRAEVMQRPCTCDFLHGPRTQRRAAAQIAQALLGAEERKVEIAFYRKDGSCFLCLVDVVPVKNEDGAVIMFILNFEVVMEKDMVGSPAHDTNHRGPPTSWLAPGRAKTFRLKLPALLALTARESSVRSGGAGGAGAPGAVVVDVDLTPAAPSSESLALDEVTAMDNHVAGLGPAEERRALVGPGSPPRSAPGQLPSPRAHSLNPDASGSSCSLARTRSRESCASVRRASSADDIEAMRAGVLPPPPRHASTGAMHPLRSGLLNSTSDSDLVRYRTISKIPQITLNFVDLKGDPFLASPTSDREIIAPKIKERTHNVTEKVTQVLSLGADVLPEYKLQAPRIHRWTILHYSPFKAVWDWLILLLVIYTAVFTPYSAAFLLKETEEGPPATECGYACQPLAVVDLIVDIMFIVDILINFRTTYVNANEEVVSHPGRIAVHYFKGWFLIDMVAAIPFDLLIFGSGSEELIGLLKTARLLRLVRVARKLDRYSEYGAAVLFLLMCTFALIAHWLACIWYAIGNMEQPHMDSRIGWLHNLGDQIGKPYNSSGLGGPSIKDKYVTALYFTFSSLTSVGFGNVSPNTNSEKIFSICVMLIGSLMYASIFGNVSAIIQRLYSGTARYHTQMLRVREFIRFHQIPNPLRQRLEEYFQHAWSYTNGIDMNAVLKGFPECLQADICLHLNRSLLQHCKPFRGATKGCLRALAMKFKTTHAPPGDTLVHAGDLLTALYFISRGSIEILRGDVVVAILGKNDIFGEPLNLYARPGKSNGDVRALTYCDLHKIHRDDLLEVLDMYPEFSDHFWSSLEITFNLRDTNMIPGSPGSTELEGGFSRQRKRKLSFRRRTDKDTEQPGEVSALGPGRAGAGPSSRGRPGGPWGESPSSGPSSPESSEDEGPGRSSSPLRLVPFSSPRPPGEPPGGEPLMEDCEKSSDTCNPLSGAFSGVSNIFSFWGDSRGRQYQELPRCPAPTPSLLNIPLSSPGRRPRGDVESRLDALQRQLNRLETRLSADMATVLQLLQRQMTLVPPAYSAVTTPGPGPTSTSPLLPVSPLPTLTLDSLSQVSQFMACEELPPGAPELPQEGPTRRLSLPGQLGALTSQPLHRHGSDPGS

Take `CNC1(c2ccccc2Cl)CCCCC1=O` (racemic) [(R,S)-ketamine, (RS)-2-(2-chlorophenyl)-2-(methylamino)cyclohexanone]: the “perseverative behavior (number of marbles buried)” value in series [1] (female Ctrl mice, prophylactic administration, FIG. 3) was “decreased”. The memory retrieval result in series [2] (1×(R,S)-ketamine 30 mg/kg) is “improved”. The “learning (freezing during training)” value in series [2] (single injection) is given as “Neither (R,S)-ketamine nor prucalopride, whether administered solely or jointly, affected learning”. Also, in series [2] (male Ctrl mice, single injection, compared to other groups), the freezing during training result is “increased”.
For `CCCCN1CCC(CCC(=O)c2cc(Cl)c(N)cc2OC)CC1.Cl` [RS-67,333, 1-(4-amino-5-chloro-2-methoxyphenyl)-3-[1(n-butyl)-4-piperidinyl]-1-propanone HCl], in series [3], the behavioral deficits result was “effective in improving”; the “hippocampal astrogliosis and microgliosis” value was “decreasing”; the “number of amyloid plaques and level of amyloid beta (Aβ) species” value is recorded as “decreasing”.
Take `COCCCN1CCC(NC(=O)c2cc(Cl)c(N)c3c2OCC3)CC1` [prucalopride, 4-amino-5-chloro-2,3-dihydro-N-[1-3-methoxypropyl)-4-piperidinyl]-7-benzofuran carboxamide monohydrochloride]: the “percentage of marbles buried” value in series [1] (7×prucalopride 1.5 mg/kg) and in series [1] (7×prucalopride 3 mg/kg) was “decreased” each time. Besides, the “weight and weight loss” value in series [4] was “neither weight nor weight loss was impacted”. Also, the “latency to feed in home cage” value in series [5] is on record as “more quickly”. In series [6], the “affinity for the hERG channels” value is “no affinity”. Besides, in series [2] (7×prucalopride 3 mg/kg), the memory retrieval result is reported as “improved”. Further, the “learning (freezing during training)” value in series [2] (single injection) was “Neither (R,S)-ketamine nor prucalopride, whether administered solely or jointly, affected learning”.
